In patent US10463745B2, “Materials for tissue regeneration” (Northwestern University, priority 2015, dated 2019):
Groups on a side chain read outwards from the residue. No end group written: not given here. BMPH = maleimide-and-hydrazide crosslinker; PPCN hydrogel = not defined here

How the values were obtained:
[1] = system: human dermal fibroblasts and human epithelial keratinocytes; assay: Self-assembled monolayer (SAM) cell adhesion assay; assay type: cell-based; settings: HDFs and HEKas
Protocol: Cysteine-terminated peptides were synthesized manually on Fmoc-Rink amide MHBA resin using a standard solid phase peptide synthesis protocol. They were purified using reverse-phase HPLC with a C18 column, and the final products were characterized by matrix-assisted laser desorption/ionization time of flight mass spectrometry (MALDI-TOF MS). Self-assembled monolayer cell adhesion assay was performed (ref 56; incorporated by reference in its entirety). Maleimide-terminated alkanethiol was self-assembled on the gold surfaces to form the well-organized monolayer. Known amount of characterized Cysteine-terminated peptides were dissolve in 0.1% trifluoroacetic acid solution and incubate with the surface to allow peptide absorption on the surface via thiol-maleimide reaction. The resulting surfaces were characterized by MALDI-TOF MS for peptide adsorption before being used for HDFs and HEKas adhesion studies. The adherent cells were counted 2 hours after the initial seeding. […]
The synthesized peptides were immobilized onto SAM chips by incubating the chips with 100 μM peptide solution in PBS at room temperature for 1 hr. […] Peptide chips were then mounted with Vectashield+DAPI and imaged on a Nikon Eclipse TE2000-U inverted fluorescence microscope. The number of cells per field of view was counted using ImageJ software. […]

db/db mice wound tissue = assay: Histology and immunofluorescence of regenerated wound tissue; assay type: in vivo, mouse
Text: Upon full closure of the wounds (for the first batch study) or 10 days after the initial wound surgery (for the second batch study), animals were euthanized and the regenerated wound tissue was excised with a 10-mm biopsy punch (Acuderm, Fort Lauderdale, Fla.), fixed using 4% paraformaldehyde and embedded by paraffin. The tissues were then sectioned and processed for hematoxylin and eosin (H&E) staining to measure granulation tissue thickness, and the epithelial gap histomorphometrically. The granulation tissue thickness and epithelial gap was measured based on 5 different H&E images for each group by blinded observer using ImageJ. The tissue sections were also stained for Keratin 10, Integrin α3 or F4/80 (Santa Cruz, Dallas, Tex.) The secondary antibodies used were either conjugated to AlexaFluor488 or AlexaFluor555 (Invitrogen, Carlsbad, Calif.).

[2] = system: integrin α3 and α6 on HDFs; assay: Proliferation inhibition with anti-integrin α3 and α6 antibodies; assay type: cell-based, human; settings: 5 days
Protocol: The mouse monoclonal antibody against human integrin α6 and α3 were purchased from Santa Cruz (Dallas, T A), and dialyzed with 10,000 MWCO Dialysis Cassettes dialysis cassette (Thermo Scientific) overnight to remove the sodium azide. […] Before cell encapsulation, HDFs were pre-incubated in suspension with corresponding anti-integrin antibodies (final concentration 10 μg/mL) for 15 min at 37° C. Then the pre-treated HDFs (1×10^4 cells per 50 μL scaffold per well) were incubated on the ultra-low attachment plate (Coring, Coring, NY) for 5 days at 37° C. in 5% CO2. Anti-integrin antibodies treatments were also added in the culture media for the corresponding groups (10 μg/mL), and the media was changed every other day. After 5 days of incubation, total DNA content within each scaffold was quantified using PicoGreen DNA quantification assay as mentioned above.

HDFs [3] = assay: Cell cycle analysis by flow cytometry with propidium iodide; assay type: cell-based, human; settings: HDFs in gel
Protocol: A flow cytometric analysis, with propidium iodide (PI), was performed in order to measure the cell cycle activity. At each time point, cell encapsulated scaffolds were liquefied, and the cells were extracted via centrifuging. The cells were then washed with ice-cold PBS, and fixed with 70% ice-cold ethanol for 1 h before repeated washing with PBS and re-suspension in PBS with 0.5 mg/mL Rnase A (Thermo Fisher Scientific). After 1 h incubation, the cellular DNA was then stained with PI (50 μg/mL) for 20 min while protected from the light at 4° C. The relative DNA concentration of the stained cells was measured using a BD LSRII flow cytometer (Becton Dickinson, San Jose, Calif.).

[4] = system: db/db mice full-thickness wound; assay: Diabetic splinted excisional wound healing model, wound closure; assay type: in vivo, mouse
Protocol: To prevent skin contraction, paired pre-sterilized doughnut-shaped splints (10-mm inner diameter; 12-mm outer diameter) made from 0.5-mm-thick acrylate tape (3M, St. Paul, Minn.) were attached to the left and right dorsal sides of the mouse with Vetbond (3M) and interrupted 6-0 nylon sutures (Ethicon, Cincinnati, Ohio) after depilation. A 6-mm circular, full-thickness wound was made in the center of each splinted area. 40 μl of gel solution was applied to each wound bed. A transparent sterile occlusive dressing TegaDerm™ (3M) was then placed over the wound and the splint. Digital images of the wound area were taken every other day, and quantified in ImageJ by normalizing the wound area to the known splint area at each time point. Hydrogel dressings were reapplied on day 6, after gently rinsing the wound with cold 1× PBS.

Human dermal fibroblasts = assay: In vitro 3D cell culture, live/dead stain, confocal imaging of cell spreading; assay type: cell-based; settings: HDFs
Protocol: Cell culture medium (KGM-Gold for HEKa, DMEM+10% FBS for HDF) was then added to each well, and cells were cultured at 37° C. and 5% CO2. After 5 or 10 days, the gels were washed twice with warm 1×PBS, and stained with live/dead stain (2 uM calcein AM and 2 uM ethidium homodimer-1) at 37° C. for 15 min. The samples were then washed twice with warm 1×PBS and imaged on a Nikon C2 Confocal microscope.

HDFs [5] = assay: PicoGreen total DNA quantification (proliferation in 3D culture); assay type: cell-based, human; settings: HDFs in gel, over the course of 10 days
Protocol: HDF encapsulated hydrogel scaffold samples were prepared and cultured using the same method as the in vitro 3D cell culture with 10 K cells per 50 μl hydrogel per sample. At each time point, after removing the medium, the samples were cooled on ice, and the cells were lysed by PBS-3% Triton-X. The Quant-iT PicoGreen dsDNA assay kit (Life Technologies) was employed according to the manufacturer's protocol, and the results were read in triplicates. Samples of […] were accessed using microplate reader (Tecan, Männedorf, Switzerland); fluorescence was quantified at 520 nm with excitation at 480 nm.

## A5G81: 12 amino acid laminin α5 globular domain derived peptide AGQWHRVSVRWG (listed as Mus musculus)
[1]
  cell adhesion on SAMs presenting the peptide: excellent cell adhesion properties

## IP: inactive form of A5G81 (WHRVSVC), negative control (WHRVSVC-NH2) [reference compound]
[1]
  cell adhesion on SAMs presenting the peptide: very low cell adhesive properties

## P-A5G81: PPCN hydrogel conjugated via BMPH linker to cysteine-terminated A5G81 peptide (AGQWHRVSVRWGC([BMPH-PPCN hydrogel])-NH2; reading uncertain; also: conjugated to PPCN hydrogel via BMPH linker at C-terminal Cys)
db/db mice wound tissue; by the time of closure, compared with PPCN, P-RGD and P-IP groups
  granulation tissue thickness: significantly thicker
db/db mice wound tissue; db/db mice, day 10, P-A5G81 side vs P-IP side
  wound histology at day 10 within the same animal: thick granulation tissue was already prominent
db/db mice wound tissue; db/db mice, day 10, after two applications
  epidermal gap relative to that of the P-IP control wounds: 25%
db/db mice wound tissue; db/db mice, day 30
  epithelial gap: 340 μm
  integrin α3 positive cells in wound tissue: significant amount of α3 positive cells
  wound opening relative to the initial wound size: around 5%
db/db mice wound tissue; db/db mice, day 30, foreign body response
  macrophage marker F4/80 staining: minimum amount of macrophages
db/db mice wound tissue; db/db mice, day 30, wound centre
  Keratin 10 staining, epithelium structure: multi-layer epithelium structure
[2]; both anti-α3 and anti-α6, 10 μg/mL
  cell proliferation (total DNA) under complete blocking: close to the unfunctionalized PPCN scaffold
[2]; only anti-α3 or anti-α6, 10 μg/mL
  cell proliferation (total DNA) under partial blocking: partial decrease of the cell proliferation
HDFs [3]; day 5
  S phase percentage: 21%
HDFs [3]; day 10
  S phase percentage: 26.6%
[4]
  time to complete wound closure: 21 days
[4]; day 10
  percent wound closure: 45.3%
[4]; versus P-RGD
  complete closure faster than P-RGD: 3 days
[4]; versus PPCN and P-IP
  complete closure faster than PPCN and P-IP: one week faster
Human dermal fibroblasts; day 5
  cell spreading in 3D culture: began to spread
Human dermal fibroblasts; day 10
  cell spreading in 3D culture: fully elongated with typical fibroblast morphology
HDFs [5]
  cell proliferation rate (total DNA content): higher cell proliferation rate
